In publication PMC5373622, “Screening for AMPA receptor auxiliary subunit specific modulators” (PLoS ONE, 2017):
pEC50: −log10 of the molar value. Several values for one entry are separate records, joined by “and”; a condition that tells them apart may be missing. Identical values can stand only once. Like-named read-outs stand apart in the source and are kept apart here.

Experiments:
GluA2 alone = conditions: published value; cited from earlier work
GluA1-stargazin = system: GluA1-stargazin; design: method as in PMID 16785437; conditions: published value; cited from earlier work
[1] = target: GluA2flip(R)-stargazin (A2R-stg TetON HEK293 cells) (Homo sapiens, UniProt P42262, Q607R); experiment: Voltage-sensitive dye (VSD) assay (primary screen, counter-screen, CRC) on A2R-stg cells; conditions: for CMPDmaxmin: max-min 8-100 s, only compound present; for BaselineReturn: max 250-255 s minus min 0-5 s; for Glumaxmin: max-min normalized value 301-380 s; for Glumaxmin / GluSlope: compound and glutamate present; for GluSlope: slope 310-315 s
[2] = target: GluA2flip(R)-CNIH3 (A2R-C3 TetON HEK293 cells) (Homo sapiens, UniProt P42262, Q607R); experiment: VSD assay (counter-screen, CRC) on A2R-C3 cells; conditions: for CMPDmaxmin: max-min 8-100 s; for BaselineReturn: max 250-255 s minus min 0-5 s; for Glumaxmin: max-min normalized value 301-380 s
Source text: Cell lines used in the VSD assays were TetON HEK293 cells. This was the parental cell line for all stable cell lines created. We used GluA2flip(R) TetON HEK cell clone #4 that doxycycline (DOX) dependently expresses GluA2flip(R) (A2R). The A2R cells were used as the base cell line to derive cell lines that co-express auxiliary subunits.
Greiner 384-pp round-bottom plates containing glutamate for the second add were dispensed by hand using a multi-channel pipet at 5X final concentration. A2R-stg cells were plated in 384-well BD PureCoat amine-coated plates (Corning Life Sciences) at 16k cells/well in DMEM medium supplemented with 10% heat-inactivated FBS and 100U/mL PenStrep antibiotic. […] Cells were incubated overnight (O/N) and washed 4 times in HBSS containing 20 mM HEPES, pH 7.4, on an ELX405CW liquid aspirator and dispenser (BioTek). Buffer was left in the wells and an equal amount of 2X FLIPR dye solution was added and incubated on the cells at room temperature for 45 min. Fluorescence signal was collected at 1 Hz using Ex. 480±20 nm/Em. 540±40 nm on a Hamamatsu Functional Drug Screening System 6000 (FDSS). Baseline signal was collected for 10 seconds followed by addition of 10 μl of 5X compound for a final concentration of 10 μM.
This assay was carried out in the same way as the VSD screening assay except a 10-point concentration curve, from 40 μM to 10 nM, was plated in triplicate for each compound on a single 384-well plate. Data were summarized by plotting them as %max GLUslope against log [compound] that was fit to a four-parameter logistical model. %max GLUslope is defined as a normalized GLUslope expressed as a percentage of the mean maximum GLUslope, defined as 100, where background mean vehicle control (VHLslope) were subtracted from both values on a per plate basis. Thus, %max GLU slope = (GLUslope-mean VHLslope/mean maxGLUslope-mean VHLslope).

[3] = target: GluA2flip(Q)-GSG1L (A2Q-GSG cells) (Homo sapiens, UniProt P42262); experiment: Calcium flux (Fluo-8) compound CRC assay on A2Q-GSG cells
Source text: (§1) Cell lines used in the calcium flux assay were GluA2flip(Q)-FLAG + GSG1L-1D4 pTREt-Va dual expression in TetON HEK cell clone #20 (A2Q-GSG), GluA2flip(Q)-FLAG + CNIH3-1D4 pTREt-Va dual expression in TetON HEK cell clone #8 (A2Q-C3), GluA2flip(Q)-FLAG pTREt-Va in TetON HEK cell clone #5 (A2Q), and tethered GluA2flip(Q)-FLAG-stargazin [28] in pTREt-Va dual expression in TetON HEK cell clone #13 (A2Q-stg) (Summarized in Table 1).
(§2) Compounds that were selected as hits using the VSD assay were subsequently screened against the calcium permeable A2Q-stg and A2Q-C3 cell lines in a glutamate potency fold-shift assay using the calcium sensing dye Fluo-8 (AAT Bioquest cat #21080). This assay is used to measure how pretreatment with compounds shifts the EC50 of glutamate on A2Q-stg and A2Q-C3 cells. 30 μM of each compound was pre-incubated with the cells for 120 secs and then an 11-point glutamate CRC from 4 mM to 10 pM was applied to the cells for 180 sec. […] Greiner 384-pp round-bottom plates containing glutamate solutions were dispensed by hand using a multi-channel pipet at 5X final concentration. […] Sodium butyrate and DOX were added to the cells at 1 mM and 5 μg/mL, respectively, 24 hours before screening. A2Q-stg cells were induced with 10 μg/mL DOX. Cells were incubated O/N and washed 4 times in low calcium buffer on an ELX405CW liquid aspirator and dispenser (BioTek). Buffer was left in the wells and an equal amount of 4.6 μM (2X) Fluo-8 (AAT Bioquest cat #21080) solution with 2.5 mM probenecid was added and incubated on the cells at room temperature for 40 minutes. Probenecid was added to block dye efflux from the cells [29]. Dye was washed off with low calcium buffer using the ELX405CW (BioTek) and plates were immediately inserted into the FDSS (Hamamatsu). Fluorescence signal was collected at 1 Hz using Ex. 480±20 nm/Em. 540±40 nm. Baseline signal was collected for 10 seconds followed by addition of 20 μl of 2X compound for a final concentration of 30 μM. After 290 seconds, 10 μl of a 5X glutamate solution in high calcium buffer (10 mM HEPES, pH 7.4, 140 mM NaCl, 5 mM KCl, 1 mM MgCl2, 9 mM CaCl2, and 10 mM glucose) was added for 180 seconds.
(§3) These compound CRCs were applied to the cells 2 minutes before a 1mM glutamate stimulation. […] Normalized FDSS traces were curve fit to CRCs using the initial GLUslope (GLUslope1) in a 3–6 sec window after glutamate application. CRCs were also plotted for the traces’ area under the curve (AUC) in the GLUmaxmin window. […] Compounds were plotted as %max GLUslope against log [compound] and fit to a four-parameter logistical model as in the VSD.
(§4) Cells were loaded with Fluo-8 and excess dye was washed out. After 120 secs of pre-incubation with compound at concentrations ranging from 30 μM to 30 nM (Fig 4Bi), 1 mM glutamate was added (Fig 4Bii). In the calcium assay, 250 μM was used as the maxGLU dose because the GLUslope1 values decreased at higher concentrations of glutamate, making it the dose with the maximal GLUslope1 response. […] We measured GLUslope in three consecutive time windows, referred to as GLUslope1-3, because three phases were clearly detectable (Fig 4C). The final CRC curves were calculated from GLUslope1, obtained from the first 3–6 sec window.
(§5) The final compound CRC curves were calculated from GLUslope1. […] The AUC measures the accumulation of calcium instead of gating and sometimes produced a CRC fit when GLUslope1 could not derive an EC50 value.

[4] = target: GluA2flip(Q)-CNIH3 (A2Q-C3 cells) (Homo sapiens, UniProt P42262); experiment: Calcium flux (Fluo-8) compound CRC assay on A2Q-C3 cells
Source text: as §1, §2, §3, §4, §5

GluA2flip(Q) (A2Q cells) = target: T1, GluA2flip(Q) (A2Q cells) (Homo sapiens, UniProt P42262); experiment: Calcium flux (Fluo-8) compound CRC assay on A2Q cells; format: cell-based; conditions: CRC from GLUslope1; 1 mM glutamate; PAM; read-out: EC50 Ca2+ Sensing, A2Q
T1 construct: FLAG (C); expressed in transfected cells
T1 sequence (P42262 25-883 isoform P42262-2 limits assumed): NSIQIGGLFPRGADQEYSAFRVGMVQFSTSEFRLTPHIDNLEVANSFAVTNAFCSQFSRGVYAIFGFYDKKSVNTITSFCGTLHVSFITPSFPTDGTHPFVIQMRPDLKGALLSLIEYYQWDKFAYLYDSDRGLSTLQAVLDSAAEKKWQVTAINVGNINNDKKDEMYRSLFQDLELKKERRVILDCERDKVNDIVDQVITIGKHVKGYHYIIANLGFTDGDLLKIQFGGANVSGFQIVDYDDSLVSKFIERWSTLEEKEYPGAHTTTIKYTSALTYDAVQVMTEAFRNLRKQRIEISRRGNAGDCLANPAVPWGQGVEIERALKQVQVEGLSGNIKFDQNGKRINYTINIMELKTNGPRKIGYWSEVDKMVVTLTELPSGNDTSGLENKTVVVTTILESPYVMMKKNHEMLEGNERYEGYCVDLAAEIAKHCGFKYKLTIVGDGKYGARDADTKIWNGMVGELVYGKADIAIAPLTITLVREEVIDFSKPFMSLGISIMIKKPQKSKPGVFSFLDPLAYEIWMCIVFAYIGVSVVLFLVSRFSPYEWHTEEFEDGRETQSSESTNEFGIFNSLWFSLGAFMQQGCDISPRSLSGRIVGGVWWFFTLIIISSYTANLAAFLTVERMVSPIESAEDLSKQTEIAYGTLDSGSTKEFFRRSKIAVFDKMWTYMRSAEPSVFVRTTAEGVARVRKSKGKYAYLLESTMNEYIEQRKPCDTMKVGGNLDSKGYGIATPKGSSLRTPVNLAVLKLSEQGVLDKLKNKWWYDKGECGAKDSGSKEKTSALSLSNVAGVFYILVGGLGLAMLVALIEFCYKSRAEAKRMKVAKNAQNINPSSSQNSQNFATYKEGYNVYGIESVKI

GluA2flip(R)-CNIH3 (A2R-C3 TetON HEK293 cells), sequence (P42262 25-883 isoform P42262-2 Q607R limits assumed): as the sequence (P42262 25-883 isoform P42262-2 limits assumed) above, with Q583R counted along it
GluA2flip(R)-CNIH3 (A2R-C3 TetON HEK293 cells), sequence (Q8TBE1 whole entry partner): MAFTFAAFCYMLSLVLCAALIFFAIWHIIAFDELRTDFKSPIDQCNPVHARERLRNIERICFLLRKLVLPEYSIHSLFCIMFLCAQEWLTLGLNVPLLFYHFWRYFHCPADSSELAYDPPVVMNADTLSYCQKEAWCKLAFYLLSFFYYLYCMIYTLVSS
GluA2flip(R)-stargazin (A2R-stg TetON HEK293 cells), sequence (P42262 25-883 isoform P42262-2 Q607R limits assumed): as the sequence (P42262 25-883 isoform P42262-2 limits assumed) above, with Q583R counted along it
GluA2flip(R)-stargazin (A2R-stg TetON HEK293 cells), sequence (Q9Y698 whole entry partner): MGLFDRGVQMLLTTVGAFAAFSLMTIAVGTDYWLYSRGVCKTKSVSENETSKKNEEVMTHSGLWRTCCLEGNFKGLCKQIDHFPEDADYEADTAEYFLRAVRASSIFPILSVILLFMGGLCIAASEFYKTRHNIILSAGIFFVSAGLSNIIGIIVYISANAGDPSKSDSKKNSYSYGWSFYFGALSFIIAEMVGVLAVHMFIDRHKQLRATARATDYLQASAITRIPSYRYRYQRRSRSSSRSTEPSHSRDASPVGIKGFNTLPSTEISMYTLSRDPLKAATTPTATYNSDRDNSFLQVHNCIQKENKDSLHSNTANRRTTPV
GluA2flip(Q)-GSG1L (A2Q-GSG cells), sequence (P42262 25-883 isoform P42262-2 limits assumed): as the sequence (P42262 25-883 isoform P42262-2 limits assumed) above
GluA2flip(Q)-GSG1L (A2Q-GSG cells), sequence (Q6UXU4 whole entry partner): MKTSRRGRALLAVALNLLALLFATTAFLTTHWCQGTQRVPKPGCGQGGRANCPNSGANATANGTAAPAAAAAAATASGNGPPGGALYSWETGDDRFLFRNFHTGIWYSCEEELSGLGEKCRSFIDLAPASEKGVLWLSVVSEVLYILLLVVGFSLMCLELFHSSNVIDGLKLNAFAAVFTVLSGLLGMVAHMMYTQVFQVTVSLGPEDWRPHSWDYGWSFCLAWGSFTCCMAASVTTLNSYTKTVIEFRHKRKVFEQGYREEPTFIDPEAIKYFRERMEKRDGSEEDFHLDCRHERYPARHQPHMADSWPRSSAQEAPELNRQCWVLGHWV
GluA2flip(Q)-CNIH3 (A2Q-C3 cells), sequence (P42262 25-883 isoform P42262-2 limits assumed): as the sequence (P42262 25-883 isoform P42262-2 limits assumed) above
GluA2flip(Q)-CNIH3 (A2Q-C3 cells), sequence (Q8TBE1 whole entry partner): as the sequence (Q8TBE1 whole entry partner) above

pEC50 [1]: 6.05 | Glumaxmin ([1]; 7.8125e-6 M): 0.1527 and 0.1804 and 0.2045 and 0.2207 | Glumaxmin ([1]; 1.5625e-5 M): 0.2558 and 0.3432 and 0.3162 and 0.3337 | activity at 250 µM ([1]; HEK293, read-out: AVE %MAXCMPDslope, 0.00025 M, average of wells): 28.2% | activity at 500 µM ([1]; HEK293, read-out: AVE %MAXCMPDslope, 0.0005 M, average of wells): 27.5% | activity at […] ([1]; HEK293, read-out: AVE %MAXCMPDslope, […], average of wells): 29% | activity at 250 µM ([1]; HEK293, read-out: AVE %MAXslope, 0.00025 M, average of wells): 71.3% | activity at 500 µM ([1]; HEK293, read-out: AVE %MAXslope, 0.0005 M, average of wells): 65.9% | activity at […] ([1]; HEK293, read-out: AVE %MAXslope, […], average of wells): 68.4% | activity at 250 µM ([1]; HEK293, read-out: pctMAX, 0.00025 M, Glumaxmin as percentage MAX (vhl and glutamate controls)): 55.4% | activity at […] ([1]; HEK293, read-out: pctMAX, […], Glumaxmin as percentage MAX (vhl and glutamate controls)): 44.5% | activity at 250 µM ([1]; HEK293, read-out: pctMAXslope, 0.00025 M, GluSlope as percentage MAX): 67.4% | activity at […] ([1]; HEK293, read-out: pctMAXslope, […], GluSlope as percentage MAX): 64.2% | activity at 250 µM ([1]; HEK293, read-out: pctMAXslopeCMPD, 0.00025 M, CMPDSlope as percentage MAX): 27.7% | activity at 500 µM ([1]; HEK293, read-out: pctMAXslopeCMPD, 0.0005 M, CMPDSlope as percentage MAX): 26.2% | activity at […] ([1]; HEK293, read-out: pctMAXslopeCMPD, […], CMPDSlope as percentage MAX): 28.9% | pEC50 [2]: 6.10 | BaselineReturn ([2]; 7.8125e-6 M ligand, per well): 0.02655 and 0.02476 | CMPDmaxmin ([2]; 7.8125e-6 M ligand, compound only, per well): 0.03133 and 0.03273 | Glumaxmin ([2]; 7.8125e-6 M ligand, compound+glutamate, per well): 0.1051 and 0.1531 | GluSlope ([2]; 7.8125e-6 M ligand, slope of normalized value 310-315 s, compound+glutamate, per well): 1.084e-5 and 1.388e-5 | Glumaxmin ([2]; 7.8125e-6 M, compound and glutamate present, per well): 0.1519 and 0.1861 and 0.161 and 0.1533 | Glumaxmin ([2]; 1.5625e-5 M, compound and glutamate present, per well): 0.222 and 0.2669 and 0.2275 | activity at 250 µM ([2]; HEK293, read-out: AVE %MAXCMPDslope, 0.00025 M, average for the concentration): 20.3% | activity at 500 µM ([2]; HEK293, read-out: AVE %MAXCMPDslope, 0.0005 M, average for the concentration): 20.7% | activity at […] ([2]; HEK293, read-out: AVE %MAXCMPDslope, […], average for the concentration): 19.2% | activity at 250 µM ([2]; HEK293, read-out: AVE %MAXslope, 0.00025 M, average for the concentration): 68.1% | activity at […] ([2]; HEK293, read-out: AVE %MAXslope, […], average for the concentration): 63.8% | activity at 500 µM ([2]; HEK293, read-out: pctMAX, 0.0005 M, Glumaxmin vs vhl and glutamate controls, per well): 57.7% | activity at 500 µM ([2]; HEK293, read-out: pctMAXslope, 0.0005 M, GluSlope vs vhl and glutamate controls, per well): 67.5% | activity at 250 µM ([2]; HEK293, read-out: pctMAXslopeCMPD, 0.00025 M, CMPDSlope vs vhl and glutamate controls, per well): 18.6% | activity at 500 µM ([2]; HEK293, read-out: pctMAXslopeCMPD, 0.0005 M, CMPDSlope vs vhl and glutamate controls, per well): 18.6% | activity at […] ([2]; HEK293, read-out: pctMAXslopeCMPD, […], CMPDSlope vs vhl and glutamate controls, per well): 19.3% | pEC50 [3]: 5.80 | pEC50 [4]: 6.40 | pEC50 (GluA2flip(Q) (A2Q cells)): 5.72
SMILES: NS(=O)(=O)c1cc2c(cc1Cl)NC(C1CC3C=CC1C3)NS2(=O)=O (stereo not shown) [CTZ, cyclothiazide]
pEC50 (GluA2 alone): 5.66 | pEC50 (GluA1-stargazin): 5.70 | CMPDmaxmin ([1]; 1.95313e-6 M): 0.01995 and 0.02197 and 0.02343 and 0.0204 and 0.02099 | BaselineReturn ([1]; 3.90625e-6 M): 0.01694 and 0.02593 and 0.02261 and 0.02289 and 0.01533 and 0.01439 | CMPDmaxmin ([1]; 3.90625e-6 M): 0.02654 and 0.02518 and 0.0211 and 0.01857 | BaselineReturn ([1]; 7.8125e-6 M): 0.02783 and 0.02662 and 0.0353 and 0.03259 and 0.02886 and 0.02588 | CMPDmaxmin ([1]; 7.8125e-6 M): 0.0268 and 0.03115 and 0.03117 and 0.04146 and 0.02344 and 0.0309 | GluSlope ([1]; 7.8125e-6 M): 1.356e-5 and 1.3e-5 and 1.265e-5 and 1.674e-5 and 1.689e-5 and 1.461e-5 | CMPDmaxmin ([1]; 1.5625e-5 M): 0.03354 and 0.03952 and 0.05587 and 0.04086 and 0.03876 and 0.03573 | GluSlope ([1]; 1.5625e-5 M): 1.634e-5 and 1.622e-5 and 1.53e-5 and 2.233e-5 and 2.059e-5 and 2.204e-5 | BaselineReturn ([1]; 3.125e-5 M): 0.0693 and 0.04071 and 0.04552 and 0.04058 and 0.03606 and 0.0477 | CMPDmaxmin ([1]; 3.125e-5 M): 0.05834 and 0.04067 and 0.04238 and 0.04539 and 0.03379 and 0.04106 | Glumaxmin ([1]; 3.125e-5 M): 0.4026 and 0.4044 and 0.3672 and 0.4286 and 0.4072 | CMPDmaxmin ([1]; 6.25e-5 M): 0.04424 and 0.05275 and 0.04401 and 0.03573 and 0.03351 and 0.03343 | Glumaxmin ([1]; 6.25e-5 M): 0.4053 and 0.4064 and 0.4608 and 0.469 and 0.4686 and 0.4908 | GluSlope ([1]; 6.25e-5 M): 1.974e-5 and 2.267e-5 and 2.556e-5 and 2.473e-5 and 2.4778e-5 and 2.559e-5 | CMPDmaxmin ([1]; 0.00025 M): 0.0338 and 0.0291 and 0.02948 and 0.02774 and 0.02398 and 0.02262 | Glumaxmin ([1]; 0.00025 M): 0.4981 and 0.5117 and 0.5708 and 0.5208 and 0.5482 and 0.5112 | GluSlope ([1]; 0.00025 M): 2.302e-5 and 2.432e-5 and 2.511e-5 and 2.509e-5 and 2.863e-5 and 2.554e-5 | CMPDmaxmin ([1]; 0.0005 M): 0.04815 and 0.05143 and 0.02949 and 0.04218 and 0.05076 and 0.0521 | Glumaxmin ([1]; 0.0005 M): 0.4797 and 0.5039 and 0.3566 and 0.5216 and 0.4987 and 0.5435 | GluSlope ([1]; 0.0005 M): 2.0723e-5 and 2.479e-5 and 1.376e-5 and 2.232e-5 and 2.492e-5 and 2.656e-5 | CMPDmaxmin ([2]; 1.95313e-6 M ligand, compound only, per well): 0.02498 and 0.01841 and 0.01791 and 0.02774 | CMPDmaxmin ([2]; 3.90625e-6 M ligand, compound only, per well): 0.02327 and 0.02311 and 0.02554 and 0.02077 | GluSlope ([2]; 3.90625e-6 M ligand, slope of normalized value 310-315 s, compound+glutamate, per well): 3.655e-6 and 4.544e-6 and 4.211e-6 and 5.143e-6 and 7.279e-6 and 5.643e-6 | BaselineReturn ([2]; 7.8125e-6 M, per well): 0.01945 and 0.0284 and 0.03375 and 0.02763 | CMPDmaxmin ([2]; 7.8125e-6 M, only compound present, per well): 0.02499 and 0.03299 and 0.03909 and 0.04405 | GluSlope ([2]; 7.8125e-6 M, slope 310-315 s, compound and glutamate present, per well): 1.427e-5 and 1.51e-5 and 1.46e-5 and 1.177e-5 | BaselineReturn ([2]; 1.5625e-5 M, per well): 0.04439 and 0.04696 and 0.04628 and 0.04829 and 0.04336 and 0.0478 | CMPDmaxmin ([2]; 1.5625e-5 M, only compound present, per well): 0.04028 and 0.05159 and 0.051 and 0.04736 and 0.04942 and 0.04289 | GluSlope ([2]; 1.5625e-5 M, slope 310-315 s, compound and glutamate present, per well): 1.982e-5 and 1.758e-5 and 1.735e-5 and 2.35e-5 and 2.196e-5 and 2.323e-5 | Glumaxmin ([2]; 3.125e-5 M, compound and glutamate present, per well): 0.3443 and 0.3512 and 0.3188 and 0.318 and 0.3671 | GluSlope ([2]; 3.125e-5 M, slope 310-315 s, compound and glutamate present, per well): 2.5659e-5 and 2.5089e-5 and 2.398e-5 and 2.252e-5 and 2.824e-5 and 2.481e-5 | BaselineReturn ([2]; 6.25e-5 M, per well): 0.06773 and 0.07885 and 0.0633 and 0.06912 and 0.08153 and 0.08744 | CMPDmaxmin ([2]; 6.25e-5 M, only compound present, per well): 0.07201 and 0.07489 and 0.07237 and 0.06864 and 0.0824 and 0.08958 | Glumaxmin ([2]; 6.25e-5 M, compound and glutamate present, per well): 0.3694 and 0.3861 and 0.381 and 0.3994 and 0.4282 and 0.4362 | GluSlope ([2]; 6.25e-5 M, slope 310-315 s, compound and glutamate present, per well): 2.565e-5 and 2.689e-5 and 2.837e-5 and 2.784e-5 and 3.091e-5 and 2.855e-5 | CMPDmaxmin ([2]; 0.00025 M, only compound present, per well): 0.06294 and 0.04965 and 0.05528 and 0.07959 and 0.04247 and 0.05305 | Glumaxmin ([2]; 0.0005 M, compound and glutamate present, per well): 0.4488 and 0.457 and 0.483 and 0.5352 and 0.5162 and 0.5252 | GluSlope ([2]; 0.0005 M, slope 310-315 s, compound and glutamate present, per well): 2.6241e-5 and 2.3366e-5 and 3.012e-5 and 2.914e-5 and 2.692e-5 and 2.648e-5
